The values that follow come from patent publication US4645840A, “Intermediates for preparing 1,2-dihydropyrido[3,4-b]-pyrazines” (Southern Research Institute, priority 1986, dated 1987).

Structures are written as SMILES. pIC50: −log10 of the molar value. Read-outs that look alike come from different tables or passages of the source.

For series [1], the system named is lymphoid leukemia L1210 cells. Kind of series: Inhibition of proliferation of cultured lymphoid leukemia L1210 cells. The format is cell-based. The note with it: Mus musculus. As for the experimental part:
The 1,2-dihydropyrido[3,4-b]pyrazines of this invention are powerful inhibitors of the proliferation of cultured lymphoid luekemia L1210 cells as shown in Table IV.
(a) Concentration of agent that inhibits proliferation of cultured
lymphoid leukemia L1210 cells to 50% control growth during 48 hours. G. P
Wheeler, B. J. Bowdon, J. A. Werline, D. J. Adamson and C. Temple, Jr.,

In series [2] the test system is lymphoid leukemia L1210 cells. Kind of series: Mitotic index of cultured lymphoid leukemia L1210 cells. The format is cell-based.
The subject of series [3] is lymphocytic leukemia P388 cells. Briefly: Activity against lymphocytic leukemia P388 (10^6 tumor cell implant, i.p.) in mice. The format is in vivo. The conditions noted are these: P388, 10^6 cells i.p. The text has this: (c) Lymphocytic leukemia P388. R. I. Geran, N. H. Greenbert, M. M.
MacDonald, A. M. Schumacker, and B. J. Abbott, Cancer Chemother. Rep., 3

The next series relates to several neoplasms. The note with it: cited from earlier work.
In series [4] the test system is Vincristine-resistant line of P388. Kind of series: Activity against vincristine-resistant line of P388 in mice. The format is in vivo. The conditions noted are these: for activity against P388 cells resistant to vincristine: in mice. An excerpt: (g) Vincristineresistant line of P388. L. J. Wilkoff and E. A. Dulmadge, […]
The subject of series [5] is Methotrexate-resistant line of P388 (tumor P7). The note with it: methotrexate-resistant line of P388, 10^6 cell implant IP, 2 mg/kg, qd 1-9; cited from earlier work.
Series [6] relates to lymphocytic leukemia P388 cells. The conditions noted are these: sensitive line of P388, 10^6 cell implant IP, 2 mg/kg, qd 1-9; cited from earlier work.
The test system of the next series is KB cell. The conditions noted are these: cited from earlier work.
Series [7] has as its system Methotrexate-resistant line of P388 (tumor P7). Kind of series: Activity against methotrexate-resistant line of P388 in mice. The note with it: methotrexate-resistant P388, schedule day 1, 100 mg/kg. The format is in vivo. The procedure: (e) Methotrexateresistant line of P388 (designated tumor P7 by the Drug
Evaluation Branch, National Cancer Institute). In mice with 10^6 cell
implant (IP), methotrexate at a dose of 2 mg/kg on the qd 1-9 schedule
gave a 2log cell kill against the sensitive line of P388 and a 2log
increase in cells against the methotrexateresistant line of P388.

The mark [8] stands for this setting: L1210, inhibits proliferation to 50% control growth during 48 hours (footnote a), read-out: ID50 (the source's name).

For the compound `CC[C@]1(O)C[C@H]2CN(CCc3c([nH]c4ccccc34)[C@@](C(=O)OC)(c3cc4c(cc3OC)N(C=O)[C@H]3[C@@](O)(C(=O)OC)[C@H](OC(C)=O)[C@]5(CC)C=CCN6CC[C@]43[C@@H]65)C2)C1` [Vincristine, reference compound], the pIC50 in series [1] (L1210, 48 h, read-out: ID50) is 9.00.

For the compound `CCOC(=O)Nc1cc2c(c(N)n1)N=C(CN(C)c1ccc(Cl)cc1)CN2` [R = 4-ClC6 H4 N(CH3)CH2 (R4 = H)], the “Mitotic Index 12 h” value in series [2] (0.03 μM) is reported as 0.71. Besides, in series [3] (schedule day 1, 100 mg/kg), the “% ILS” value was found to be 65%. Also, the pIC50 in series [1] (setting [8]) is 7.84.

Take `CCOC(=O)Nc1cc2c(c(N)n1)N=C(CN(C)c1ccc(C(=O)OC)cc1)CN2` [R = 4-CH3 O2 CC6 H4 N(CH3)CH2 (R4 = H), reference compound]: the “Mitotic Index 12 h” value in series [2] (0.1 μM) is recorded as 0.44; in series [2] (0.3 μM), 0.61. Moreover, the “% ILS” value in series [3] (schedule days 1-9, 25 mg/kg) stood at 30%. Moreover, the pIC50 in [1] (setting [8]) was 7.24.

Consider `CCOC(=O)Nc1cc2c(c(N)n1)N=C(CN(C)c1ccccc1)CN2` [NSC-181928], for which, in the series on several neoplasms, the “activity against several neoplasms” value is reported as “active against several neoplasms”.

For the compound `CCOC(=O)Nc1cc2c(c(N)n1)N=C(CCc1ccccc1)CN2` [R = C6 H5 CH2 CH2 (R4 = H), Ethyl 5-Amino-1,2-dihydro-3-(2-phenylethyl)pyrido(3,4-b)pyrazine-7-carbamate], the “Mitotic Index 24 h” value in series [2] (0.3 μM) worked out at 0.33. In addition, the “% ILS” value in [3] (schedule day 1, 100 mg/kg) was determined as 29%. For the same compound, the pIC50 in [1] (setting [8]) is 7.89.

Consider `CCOC(=O)Nc1cc2c(c(N)n1)N=C(CN(C)c1ccc(OC)cc1)CN2` [R = 4-CH3 OC6 H4 N(CH3)CH2 (R4 = H)], for which the “Mitotic Index 12 h” value was 0.64 in [2] (0.03 μM) and 0.49 in series [2] (0.3 μM). In addition, the “% ILS” value is 133% in series [3] (schedule day 1, 25 mg/kg); 80% in [3] (schedule day 1, 50 mg/kg); 150% in series [4] (vincristine-resistant P388, schedule day 1, 25 mg/kg). The pIC50 in [1] (setting [8]) was 8.10. The “activity against P388 cells resistant to vincristine” value in series [4] is recorded as “active in mice against P388 cells that were resistant to vincristine”.

Consider `CCOC(=O)Nc1cc2c(c(N)n1)N=C(CN(C)c1ccc(OC)cc1)C(C)N2` (centres unmarked) [R = 4-CH3 OC6 H4 N(CH3)CH2 (R4 = CH3), Ethyl 5-Amino-1,2-dihydro-3-[[N-(4-methoxyphenyl)-N-methylamino]methyl]-2-methylpyrido[3,4-b]pyrazine-7-carbamate], for which, in [2] (0.3 μM), the “Mitotic Index 12 h” value amounted to 0.66. Further, the “% ILS” value in [3] (schedule days 1-5, 48 mg/kg) worked out at 53%. Also, the pIC50 in series [1] (setting [8]) is 8.26.

`CN(Cc1cnc2nc(N)nc(N)c2n1)c1ccc(C(=O)N[C@@H](CCC(=O)O)C(=O)O)cc1` [methotrexate]: in series [5], the “log increase in cells” value was 2 log. The log cell kill in series [6] was 2 log.

For the compound `CCOC(=O)Nc1cc2c(c(N)n1)N=C(CN(C)c1ccc(C(=O)OC)cc1)CN2` [drawing 5], the “cytotoxicity in the KB cell culture screen” value in the series on KB cell is listed as “showed cytotoxicity in the KB cell culture screen”.

As to `CCOC(=O)Nc1cc2c(c(N)n1)N=C(CN(C)c1ccccc1)CN2` [R = C6 H5 N(CH3)CH2 (R4 = H), Ethyl 5-Amino-1,2-dihydro-3-[(N-methyl-N-phenyl)aminomethyl]pyrido[3,4-b]pyrazine-7-carbamate], the “% ILS” value in [7] stood at 66%; in series [3] (schedule day 1, 100 mg/kg), 114%; in series [4] (vincristine-resistant P388, schedule day 1, 67 mg/kg), 90%. Further, the “Mitotic Index 12 h” value in series [2] (0.03 μM) worked out at 0.77. In addition, the “Mitotic Index 24 h” value in [2] (0.3 μM) is on record as 0.80. For the same compound, in series [1] (setting [8]), the pIC50 was 8.08. Also, the “activity against P388 cells resistant to vincristine” value in [4] is on record as “active in mice against P388 cells that were resistant to vincristine”.
